Data from patent US10098852B2 (LAUNX BIOMEDICAL CO., LTD., priority 2014, dated 2018).
Like-named read-outs stand apart in the source and are kept apart here.

Assays:
Type in all cases: cell-based
[1] = system: MDA-MB-231 (Mammary Gland, Adenocarcinoma); assay: Cell viability analysis (WST-1), breast cancer cell line MDA-MB-231; details: Homo sapiens
Procedure: (§1) The cell numbers were counted and reseed as 2×10^6 in cell culture plate/flask. Then, the culture medium was added to a volume of 10 ml, and the cells were cultured for 2-3 days. Then, the cells were suspended for loading into 96-well plates. The cell number was 3000/well and the volume of the culture medium was 100 μl each well.
(§2) Removing the original culture medium from 96-well plate. Then add 100 μl of commercially drug at a concentration of 10 μM per well. After 72 hours, add the diluted WST-1 reagent to the well with 100 μl/well, and the diluted WST-1 reagent was acquired from the dilution of 9:1 medium and WST-1 stock reagent. Finally, the total volume of each well was 200 μl/well. Culture the 96-well plate at 37° C. for 30 to 90 minutes. Detecting and calculate the survival rate of each cancer cells with an ELISA reader at OD450 nm.

[2] = system: A375 (amelanotic melanoma); assay: Cell viability analysis (WST-1), skin cancer cell line A375; details: Homo sapiens
Procedure: as §1, §2

[3] = system: T24 (bladder cancer cell line); assay: Cell viability analysis (WST-1), bladder cancer cell line T24; details: T24, 10 μM
Procedure: as §1, §2

[4] = system: MCF7 (Mammary Gland, Adenocarcinoma); assay: Cell viability analysis (WST-1), breast cancer cell line MCF7; details: Homo sapiens
Procedure: as §1, §2

[5] = system: HepG2 (hepatocellular carcinoma); assay: Cell viability analysis (WST-1), hepatic cancer cell line HepG2; details: Homo sapiens
Procedure: as §1, §2

[6] = system: AsPC-1 (pancreatic cancer cell line); assay: Cell viability analysis (WST-1), pancreatic cancer cell line AsPC-1; details: Homo sapiens
Procedure: as §1, §2

[7] = system: AGS (Gastric Adenocarcinoma); assay: Cell viability analysis (WST-1), gastric cancer cell line AGS
Procedure: as §1, §2

[8] = system: NIH-OVCAR-3 (ovarian cancer cell line); assay: Cell viability analysis (WST-1), ovarian cancer cell line NIH-OVCAR-3; details: Homo sapiens
Procedure: as §1, §2

[9] = system: Hep3B (hepatocellular carcinoma); assay: Cell viability analysis (WST-1), hepatic cancer cell line Hep3B; details: Homo sapiens
[10] = 72 h, average of 4 tests, read-out: inhibition effect (survival rate of cells), average

Oc1ccc(OCc2ccccc2)cc1 [Monobenzone]
viability at 10 µM ([1]; MDA-MB-231, 72 h, MDA-MB-231, 10 μM, average of 4 tests, read-out: inhibition effect (survival rate of cells), average): 80.1%
viability at 10 µM ([1]; MDA-MB-231, MDA-MB-231, 10 μM, 72 hours, test 0612-10 min, read-out: inhibition effect (survival rate of cells)): 91.3%
viability at 10 µM ([1]; MDA-MB-231, MDA-MB-231, 10 μM, 72 hours, test 0614-10 min, read-out: inhibition effect (survival rate of cells)): 67.6%
viability at 10 µM ([1]; MDA-MB-231, MDA-MB-231, 10 μM, 72 hours, test 0616-10 min, read-out: inhibition effect (survival rate of cells)): 69.6%
viability at 10 µM ([1]; MDA-MB-231, MDA-MB-231, 10 μM, 72 hours, test 0619-10 min, read-out: inhibition effect (survival rate of cells)): 92%
viability at 10 µM ([2]; A-375, 72 h, A375, 10 μM, average of 4 tests, read-out: inhibition effect (survival rate of cells), Average): 76.4%
viability at 10 µM ([2]; A-375, A375, 10 μM, 72 hours, test 0602-30 min, read-out: inhibition effect (survival rate of cells)): 56.7%
viability at 10 µM ([2]; A-375, A375, 10 μM, 72 hours, test 0605-10 min, read-out: inhibition effect (survival rate of cells)): 64.8%
viability at 10 µM ([2]; A-375, A375, 10 μM, 72 hours, test 0607-10 min, read-out: inhibition effect (survival rate of cells)): 77.3%
viability at 10 µM ([2]; A-375, A375, 10 μM, 72 hours, test 0609-10 min, read-out: inhibition effect (survival rate of cells)): 107%
viability at 10 µM [3, 10]: 87%
viability at 10 µM ([3]; 72 hours, test T24-1-30 min, read-out: inhibition effect (survival rate of cells)): 93.5%
viability at 10 µM ([3]; 72 hours, test T24-2-20 min, read-out: inhibition effect (survival rate of cells)): 70.4%
viability at 10 µM ([3]; 72 hours, test T24-3-20 min, read-out: inhibition effect (survival rate of cells)): 89.4%
viability at 10 µM ([3]; 72 hours, test T24-4-20 min, read-out: inhibition effect (survival rate of cells)): 94.7%
viability at 10 µM ([4]; MCF7, 72 h, MCF7, 10 μM, average of 4 tests, read-out: inhibition effect (survival rate of cells), average): 95.7%
viability at 10 µM ([4]; MCF7, MCF7, 10 μM, 72 hours, test 0612-10 min, read-out: inhibition effect (survival rate of cells)): 107%
viability at 10 µM ([4]; MCF7, MCF7, 10 μM, 72 hours, test 0614-10 min, read-out: inhibition effect (survival rate of cells)): 88.8%
viability at 10 µM ([4]; MCF7, MCF7, 10 μM, 72 hours, test 0616-10 min, read-out: inhibition effect (survival rate of cells)): 80.6%
viability at 10 µM ([4]; MCF7, MCF7, 10 μM, 72 hours, test 0619-10 min, read-out: inhibition effect (survival rate of cells)): 106%
viability at 10 µM ([5]; HepG2, 72 h, HepG2, 10 μM, average of 4 tests, read-out: inhibition effect (survival rate of cells), average): 84.7%
viability at 10 µM ([5]; HepG2, HepG2, 10 μM, 72 hours, test 0524-20 min, read-out: inhibition effect (survival rate of cells)): 88.2%
viability at 10 µM ([5]; HepG2, HepG2, 10 μM, 72 hours, test 0526-20 min, read-out: inhibition effect (survival rate of cells)): 85.6%
viability at 10 µM ([5]; HepG2, HepG2, 10 μM, 72 hours, test 0529-20 min, read-out: inhibition effect (survival rate of cells)): 90.8%
viability at 10 µM ([5]; HepG2, HepG2, 10 μM, 72 hours, test 0531-20 min, read-out: inhibition effect (survival rate of cells)): 74.3%
viability at 10 µM ([6]; ASPC1, 72 h, AsPC-1, 10 μM, average of 4 tests, read-out: inhibition effect (survival rate of cells), average): 95.1%
viability at 10 µM ([6]; ASPC1, AsPC-1, 10 μM, 72 hours, test 1-4-30 min, read-out: inhibition effect (survival rate of cells)): 93.7%
viability at 10 µM ([6]; ASPC1, AsPC-1, 10 μM, 72 hours, test 1-7-3-30 min, read-out: inhibition effect (survival rate of cells)): 88.7%
viability at 10 µM ([6]; ASPC1, AsPC-1, 10 μM, 72 hours, test 1-7-4-30 min, read-out: inhibition effect (survival rate of cells)): 116%
viability at 10 µM ([6]; ASPC1, AsPC-1, 10 μM, 72 hours, test 1-7-7-30 min, read-out: inhibition effect (survival rate of cells)): 81.7%
viability at 10 µM [7, 10]: 68.4%
viability at 10 µM ([7]; 72 hours, test 0510-10 min, read-out: inhibition effect (survival rate of cells)): 85.2%
viability at 10 µM ([7]; 72 hours, test 0512-10 min, read-out: inhibition effect (survival rate of cells)): 51.3%
viability at 10 µM ([7]; 72 hours, test 0515-10 min, read-out: inhibition effect (survival rate of cells)): 62.2%
viability at 10 µM ([7]; 72 hours, test 0517-10 min, read-out: inhibition effect (survival rate of cells)): 74.9%
viability at 10 µM ([8]; OVCAR-3, 72 h, NIH-OVCAR-3, 10 μM, average of 4 tests, read-out: inhibition effect (survival rate of cells), average): 91.5%
viability at 10 µM ([8]; OVCAR-3, NIH-OVCAR-3, 10 μM, 72 hours, test 7-3-30 min, read-out: inhibition effect (survival rate of cells)): 88.3%
viability at 10 µM ([8]; OVCAR-3, NIH-OVCAR-3, 10 μM, 72 hours, test 7-4-30 min, read-out: inhibition effect (survival rate of cells)): 96.6%
viability at 10 µM ([8]; OVCAR-3, NIH-OVCAR-3, 10 μM, 72 hours, test 7-7-30 min, read-out: inhibition effect (survival rate of cells)): 88.3%
viability at 10 µM ([8]; OVCAR-3, NIH-OVCAR-3, 10 μM, 72 hours, test −4-30 min, read-out: inhibition effect (survival rate of cells)): 92.7%
viability at 10 µM [9, 10]: 106%
viability at 10 µM ([9]; 72 hours, test 0612-20 min, read-out: inhibition effect (survival rate of cells)): 111%
viability at 10 µM ([9]; 72 hours, test 0614-20 min, read-out: inhibition effect (survival rate of cells)): 116%
viability at 10 µM ([9]; 72 hours, test 0616-20 min, read-out: inhibition effect (survival rate of cells)): 96.8%
